Key:
Format in all cases: in vivo
corn [1] = assay: Example 6, Procedure II: Herbicide No. 1 + alachlor (No. 7) with antidotes; conditions: Herbicides 1 and 7 applied PPI, Table 6
Method: (§1) Containers were filled and compacted with a fumigated silt loam top soil to a depth of about 1.3 cm from the top of the container. A first container was designated as an untreated control, a second container was designated as a herbicide control, and a third container was designated as a herbicide + antidote test container. Each of the containers was seeded with a crop species. A measured amount of herbicide dispersed or dissolved in acetone was applied to a measured quantity of soil. To this same quantity of soil treated with herbicide, there was added a measured amount of antidote dispersed or dissolved in acetone. The quantity of soil treated with the herbicide and antidote was thoroughly mixed to incorporate the herbicide and antidote in the soil uniformly. The seed bed in the third container of soil was covered with the soil treated with the herbicide and antidote and the container was leveled. For each test series, the seed beds of the first and second containers were likewise covered by soil layers. the cover layer of the first container was not treated with herbicide or antidote.
(§2) The containers were then placed on a bench in a greenhouse and sub-irrigated as required for the duration of the test. […] Plant response is measured in terms of percent injury. Antidote efficacy is indicated as the difference in plant injury by the herbicide(s) without the antidote and with the antidote.
(§3) This procedure is the same as Procedure I, but modified in the manner that after incorporation of the chemicals (herbicide and antidote) the containers with the covered seedbed were treated with an initial overhead irrigation equivalent to 0.6 cm rainfall, then subsequently sub-irrigated as required on greenhouse benches.
This example was designed to investigate the antidotal efficacy of a plurality of antidotal compounds against a composition comprising Herbicide No. 1 in combination with Herbicide No. 7 (alachlor). The antidotal compounds used herein were Nos. 1, 2, 7, 13 and 15.
In this example, Procedure II described above was followed. The data from the tests in this example is shown in Table 6 and represents averages of duplicate replications.

corn [2] = assay: Example 12, Procedure II: Herbicide No. 1 + acetochlor (No. 6) with thirteen antidotes; conditions: Herbicide No. 1:Herbicide 6:Antidote 0.14:2.24:2.24 kg/ha
Method: as §1, §2, §3
This example was designed to investigate the efficacy of thirteen different antidotes from different classes of chemistry as safeners against compositions of Herbicide No. 1 and acetochlor (Herbicide No. 6) as co-herbicide. Acetochlor is the active ingredient in the commercial herbicides GUARDIAN® and WENNER®.
The test procedure used in this example was Procedure II described above.

corn [3] = assay: Example 19, Procedure II: Herbicide No. 1 + ERADICANE EXTRA with added antidotes; conditions: Herbicide No. 1 + ERADICANE EXTRA, Table 19
Method: as §1, §2, §3
In the test reported in this example, the herbicidal composition was similar to that used in Example 16 in that Herbicide No. 1 was combined with EPTC (Herbicide No. 4) as a co-herbicide and the antidotes included Nos. 1, 2, 7, 13 and 15. However, in this test the EPTC was introduced as a formulation of ERADICANE (EPTC + the antidote R-25788, i.e., Antidote No. 1) at an application rate of 8.96 kg/ha. Thus, in this test two antidotes were present, viz. R-25788 and one of the auxilliary antidotes, No. 2, 13 and 15.
The test reported in this example was performed in the same manner and with the same antidotes used in Example 18, the only difference being the substitution of the commercial herbicidal product ERADICANE® EXTRA for ERADICANE®. ERADICANE EXTRA is a formulation containing both an antidote, i.e., R-29148 (Antidote No. 5 herein), and an extender, dietholate.

corn [4] = assay: Example 15, Procedure II: Herbicide No. 1 + butylate (No. 10) with antidotes
Method: as §1, §2, §3
This example describes experiments designed to investigate the antidotal efficacy of a plurality of antidotes against the herbicidal action of a combination of Herbicide No. 1 and butylate in corn and the prevalent weeds barnyardgrass and velvetleaf. The antidotes used in these experiments were Nos. 1-10, 12, 13 and 15.
The test procedure used in these experiments was that of Procedure II described above. The antidotes were applied to a soil cover layer by pipet after spraying the herbicides onto the soil, followed by incorporation and overhead irrigation.

corn [5] = assay: Example 13, Procedure II: Herbicide No. 1 + acetochlor (No. 6) with dichloroacetamide antidotes
Method: as §1, §2, §3
In this example a plurality of dichloroacetamide antidotes were tested for their safening efficacy against a herbicidal composition comprising Herbicide No. 1 and a co-herbicide, acetochlor (Herbicide No. 6) in corn in the presence of velvetleaf. The procedure used in this example was Procedure II above.

[6] = tested on: barnyardgrass (Echinochloa crusgalli); assay: Example 10, Procedure II: Herbicide No. 1 + propachlor (No. 5) with antidotes; conditions: Herbicide No.5 4.48 kg/ha alone, no antidote
Method: as §1, §2, §3
(§4) In the series of greenhouse tests described below, for routine screening purposes the herbicide/antidote compositions were tested in crop/weed combinations involving corn as the crop and either or both of the weeds barnyardgrass (Echinochloa crusgalli), a monocotyledonous weed, and velvetleaf (Abutilon theophrasti), a dicotyledonous weed. In the tables below, these weeds are indicated by the symbols "BYG" and "VL", respectively.
(§5) In this test, the safening effect of various antidotes on the herbicidal combination of Herbicide No. 1 and another α-chloroacetanilide co-herbicide, propachlor, (Herbicide No. 5) was investigated. Propachlor is the active ingredient in the commercial herbicide RAMROD®. Procedure II was also used in this test as in the preceding example.

[7] = tested on: velvetleaf (Abutilon theophrasti); assay: as above; conditions: Herbicide No.5 4.48 kg/ha alone, no antidote
Method: as §1, §2, §3, §4, §5

corn [8] = assay: as above; conditions: Herbicide No.5 4.48 kg/ha alone, no antidote
Method: as §1, §2, §3, §5

[9] = tested on: barnyardgrass (Echinochloa crusgalli); assay: Example 9, Procedure II: Herbicide No. 1 + pretilachlor (No. 13) with antidotes; conditions: Herbicide No.13 2.24 kg/ha alone, no antidote
Method: as §1, §2, §3, §4
(§6) In this example the safening effect on a composition comprising Herbicide No. 1 and another leading rice herbicide, i.e., Herbicide No. 13, was investigated using the same antidotes and test procedure described in the preceding example. Herbicide No. 13 is pretilachlor, active ingredient used in the commercial rice herbicides RIFIT®, SOFIT® and SOFIT® SUPER.

[10] = tested on: velvetleaf (Abutilon theophrasti); assay: as above; conditions: Herbicide No.13 2.24 kg/ha alone, no antidote
Method: as §1, §2, §3, §4, §6

corn [11] = assay: as above; conditions: Herbicide No.13 2.24 kg/ha alone, no antidote
Method: as §1, §2, §3, §6

[12] = tested on: barnyardgrass (Echinochloa crusgalli); assay: Example 11, Procedure II: Herbicide No. 1 + metazachlor (No. 14) with antidotes; conditions: Herbicide No.14 3.36 kg/ha alone, no antidote
Method: as §1, §2, §3, §4
(§7) In this example, yet another α-chloroacetanilide co-herbicide, metazachlor (Herbicide No. 14) was combined with Herbicide No. 1 for investigation of the effect of various safeners on that composition. Metazachlor is the active ingredient in the commercial herbicide BUTISAN® S, used here as a 500 g/L formulation.

[13] = tested on: velvetleaf (Abutilon theophrasti); assay: as above; conditions: Herbicide No.14 3.36 kg/ha alone, no antidote
Method: as §1, §2, §3, §4, §7

corn [14] = assay: as above; conditions: Herbicide No.14 3.36 kg/ha alone, no antidote
Method: as §1, §2, §3, §7

CC1(C(Cl)Cl)OCCO1 [Antidote No. 13, 1,3-Dioxolane, 2-(dichloromethyl)-2-methyl-]
safening of corn, assessment in words (corn [1]): best safening effect across four treatments
safening of corn, assessment in words (corn [2]): performed at commercial levels
safening of corn, assessment in words (corn [3]): most efficacious antidote across all four treatments
safening of corn, assessment in words (corn [4]; Herbicide No. 1 1.12 and 0.56 kg/ha + Herbicide No. 10 6.72 kg/ha PPI, Table 15): best safening effect at the highest rate

CC1(C)CN2C(=O)CCC2(C)N(C(=O)C(Cl)Cl)C1 (stereo not shown) [Antidote No. 14, 5-Dichloroacetyl-3,3,6-trimethyl-9-oxo-1,5-diazabicyclo[4.3.0]nonane]
safening of corn, assessment in words (corn [5]; Herbicide Nos. 1 and 6, Table 13): Commercial-level safening was exhibited at all rates and combinations

CC(C)N(C(=O)CCl)c1ccccc1 [Herbicide No.5]
% Injury BYG [6]: 100%
% Injury VL [7]: 15%
% Injury Corn (corn [8]): 0%

CCSC(=O)N(CC(C)C)CC(C)C [Herbicide No.10]
% Injury Corn (corn [4]; in vivo): 5%

CCCOCCN(C(=O)CCl)c1c(CC)cccc1CC [Herbicide No.13]
% Injury BYG [9]: 100%
% Injury VL [10]: 5%
% Injury Corn (corn [11]): 0%

Cc1cccc(C)c1N(Cn1cccn1)C(=O)CCl [Herbicide No.14]
% Injury BYG [12]: 100%
% Injury VL [13]: 65%
% Injury Corn (corn [14]): 85%

CC1(C)CN2C(=O)CCC2(C)N(C(=O)C(Cl)Cl)C1 (stereo not shown) [compound 14]
% Injury Corn (corn [5]; in vivo): 5%

From patent publication EP0603240B1, “SAFENING HERBICIDAL PYRAZOLYLSULFONYLUREAS” (priority 1991, dated 1993)
